# Experiments:
# [1] = target: NT-3 growth factor receptor (Homo sapiens) (UniProt Q16288); experiment: Inhibition of TRKC (unknown origin) at 0.1 uM
# [2] = Oral bioavailability in Sprague-Dawley rat at 5 mg/kg by LC-MS/MS analysis; assay type: ADME, organism-based; conditions: in vivo
# [3] = target: High affinity nerve growth factor receptor (Homo sapiens) (UniProt P04629); experiment: Inhibition of TRKA (unknown origin) at 0.1 uM
# [4] = Plasma protein binding in human; assay type: ADME, cell-free; conditions: read-out: PPB (converted)
# [5] = Oral bioavailability in beagle dog at 5 mg/kg by LC-MS/MS analysis; assay type: ADME, organism-based, Canis lupus familiaris; conditions: in vivo
# [6] = AUC in Sprague-Dawley rat at 5 mg/kg, po by LC-MS/MS analysis; assay type: ADME, organism-based; parameters: dose 5 mg/kg, route oral; conditions: plasma
# [7] = AUC in Sprague-Dawley rat at 1 mg/kg, iv by LC-MS/MS analysis; assay type: ADME, organism-based; parameters: dose 1 mg/kg, route intravenous; conditions: plasma
# [8] = Half life in Sprague-Dawley rat at 1 mg/kg, iv by LC-MS/MS analysis; assay type: ADME, organism-based; parameters: dose 1 mg/kg, route intravenous; conditions: in vivo
# [9] = Oral bioavailability in BALB/c mouse at 50 mg/kg by LC-MS/MS analysis; assay type: ADME, organism-based; conditions: in vivo
# [10] = Volume of distribution at steady state in BALB/c mouse at 1 mg/kg, iv by LC-MS/MS analysis; assay type: ADME, organism-based; parameters: dose 1 mg/kg, route intravenous; conditions: in vivo, read-out: Vdss
# [11] = target: Receptor-type tyrosine-protein kinase FLT3 (Homo sapiens) (UniProt P36888); experiment: Inhibition of FLT3 (unknown origin) at 0.1 uM
# [12] = AUC in BALB/c mouse at 1 mg/kg, iv by LC-MS/MS analysis; assay type: ADME, organism-based; parameters: dose 1 mg/kg, route intravenous; conditions: plasma
# [13] = Volume of distribution at steady state in Sprague-Dawley rat at 1 mg/kg, iv by LC-MS/MS analysis; assay type: ADME, organism-based; parameters: dose 1 mg/kg, route intravenous; conditions: in vivo, read-out: Vdss
# [14] = Half life in beagle dog at 1 mg/kg, iv by LC-MS/MS analysis; assay type: ADME, organism-based, Canis lupus familiaris; parameters: dose 1 mg/kg, route intravenous; conditions: in vivo
# [15] = Volume of distribution at steady state in beagle dog at 1 mg/kg, iv by LC-MS/MS analysis; assay type: ADME, organism-based, Canis lupus familiaris; parameters: dose 1 mg/kg, route intravenous; conditions: in vivo
# [16] = Clearance in Sprague-Dawley rat at 1 mg/kg, iv by LC-MS/MS analysis; assay type: ADME, organism-based; parameters: dose 1 mg/kg, route intravenous; conditions: in vivo
# [17] = Cmax in Sprague-Dawley rat at 5 mg/kg, po by LC-MS/MS analysis; assay type: ADME, organism-based; parameters: dose 5 mg/kg, route oral; conditions: in vivo
# [18] = Cmax in BALB/c mouse at 50 mg/kg, po by LC-MS/MS analysis; assay type: ADME, organism-based; parameters: dose 50 mg/kg, route oral; conditions: in vivo
# [19] = target: Dual specificity protein kinase CLK2 (Homo sapiens) (UniProt P49760); experiment: Inhibition of CLK2 (unknown origin) at 0.1 uM
# Chain of Dual specificity protein kinase CLK2 (Homo sapiens) (P49760 whole entry, looked up): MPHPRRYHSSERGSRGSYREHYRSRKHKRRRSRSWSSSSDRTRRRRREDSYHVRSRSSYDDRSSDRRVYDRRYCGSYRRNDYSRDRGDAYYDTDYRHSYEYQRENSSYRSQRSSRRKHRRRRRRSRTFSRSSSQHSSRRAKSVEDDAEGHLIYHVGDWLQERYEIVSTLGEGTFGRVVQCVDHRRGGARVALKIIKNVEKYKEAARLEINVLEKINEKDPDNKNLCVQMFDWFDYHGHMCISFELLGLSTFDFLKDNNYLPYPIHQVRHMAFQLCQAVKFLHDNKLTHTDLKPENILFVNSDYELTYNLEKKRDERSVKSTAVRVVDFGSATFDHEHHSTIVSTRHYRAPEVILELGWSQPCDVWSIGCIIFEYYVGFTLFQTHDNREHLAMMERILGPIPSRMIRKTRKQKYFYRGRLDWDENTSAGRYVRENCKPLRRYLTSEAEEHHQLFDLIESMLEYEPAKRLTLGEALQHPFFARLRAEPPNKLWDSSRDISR
# [20] = Clearance in BALB/c mouse at 1 mg/kg, iv by LC-MS/MS analysis; assay type: ADME, organism-based; parameters: dose 1 mg/kg, route intravenous; conditions: in vivo
# [21] = Clearance in beagle dog at 1 mg/kg, iv by LC-MS/MS analysis; assay type: ADME, organism-based, Canis lupus familiaris; parameters: dose 1 mg/kg, route intravenous; conditions: in vivo
# [22] = Half life in BALB/c mouse at 1 mg/kg, iv by LC-MS/MS analysis; assay type: ADME, organism-based; parameters: dose 1 mg/kg, route intravenous; conditions: in vivo
# [23] = tested on: T1, Receptor-type tyrosine-protein kinase FLT3 (Homo sapiens), P36888 [D835Y]; experiment: Inhibition of FLT3 D835Y mutant (unknown origin) at 0.1 uM
# T1 sequence (whole entry): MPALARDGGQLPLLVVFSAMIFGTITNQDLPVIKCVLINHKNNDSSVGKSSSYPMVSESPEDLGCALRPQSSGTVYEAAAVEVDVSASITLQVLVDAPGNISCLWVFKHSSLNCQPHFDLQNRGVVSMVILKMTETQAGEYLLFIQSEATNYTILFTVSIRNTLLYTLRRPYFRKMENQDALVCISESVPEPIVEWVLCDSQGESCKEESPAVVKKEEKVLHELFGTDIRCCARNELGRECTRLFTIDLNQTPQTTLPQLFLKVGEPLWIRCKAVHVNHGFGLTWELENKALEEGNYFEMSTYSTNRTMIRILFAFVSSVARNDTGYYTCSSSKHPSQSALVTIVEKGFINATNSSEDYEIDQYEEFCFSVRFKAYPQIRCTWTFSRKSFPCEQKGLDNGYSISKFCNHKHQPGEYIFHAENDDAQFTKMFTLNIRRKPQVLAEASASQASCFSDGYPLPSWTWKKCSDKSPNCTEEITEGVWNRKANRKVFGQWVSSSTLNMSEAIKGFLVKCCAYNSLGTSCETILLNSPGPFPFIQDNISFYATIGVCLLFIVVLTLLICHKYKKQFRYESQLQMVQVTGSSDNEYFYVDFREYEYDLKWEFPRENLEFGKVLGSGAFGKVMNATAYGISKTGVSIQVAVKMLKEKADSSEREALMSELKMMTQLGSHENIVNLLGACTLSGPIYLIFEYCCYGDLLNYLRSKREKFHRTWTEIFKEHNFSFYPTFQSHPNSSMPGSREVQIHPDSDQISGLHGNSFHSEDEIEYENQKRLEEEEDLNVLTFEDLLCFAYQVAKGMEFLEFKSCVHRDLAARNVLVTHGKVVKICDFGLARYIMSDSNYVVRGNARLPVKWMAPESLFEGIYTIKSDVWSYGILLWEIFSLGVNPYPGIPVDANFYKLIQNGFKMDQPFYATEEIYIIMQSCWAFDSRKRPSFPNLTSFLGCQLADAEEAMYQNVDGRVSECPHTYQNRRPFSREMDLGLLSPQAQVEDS
# [24] = AUC in beagle dog at 5 mg/kg, po by LC-MS/MS analysis; assay type: ADME, organism-based, Canis lupus familiaris; parameters: dose 5 mg/kg, route oral; conditions: plasma
# [25] = AUC in beagle dog at 1 mg/kg, iv by LC-MS/MS analysis; assay type: ADME, organism-based, Canis lupus familiaris; parameters: dose 1 mg/kg, route intravenous; conditions: plasma
# [26] = Apparent permeability across MDCK cells; assay type: ADME, cell-based, Canis lupus familiaris; conditions: dog
# [27] = AUC in BALB/c mouse at 50 mg/kg, po by LC-MS/MS analysis; assay type: ADME, organism-based; parameters: dose 50 mg/kg, route oral; conditions: plasma
# physchem [28] = conditions: PBS buffer, pH 7.4, Kinetic_solubility
# [29] = Cmax in beagle dog at 5 mg/kg, po by LC-MS/MS analysis; assay type: ADME, organism-based, Canis lupus familiaris; parameters: dose 5 mg/kg, route oral; conditions: in vivo
# [30] = target: BDNF/NT-3 growth factors receptor (Homo sapiens) (UniProt Q16620); experiment: Inhibition of TRKB (unknown origin) at 0.1 uM
# Chain of BDNF/NT-3 growth factors receptor (Homo sapiens) (Q16620 32-822 limits assumed): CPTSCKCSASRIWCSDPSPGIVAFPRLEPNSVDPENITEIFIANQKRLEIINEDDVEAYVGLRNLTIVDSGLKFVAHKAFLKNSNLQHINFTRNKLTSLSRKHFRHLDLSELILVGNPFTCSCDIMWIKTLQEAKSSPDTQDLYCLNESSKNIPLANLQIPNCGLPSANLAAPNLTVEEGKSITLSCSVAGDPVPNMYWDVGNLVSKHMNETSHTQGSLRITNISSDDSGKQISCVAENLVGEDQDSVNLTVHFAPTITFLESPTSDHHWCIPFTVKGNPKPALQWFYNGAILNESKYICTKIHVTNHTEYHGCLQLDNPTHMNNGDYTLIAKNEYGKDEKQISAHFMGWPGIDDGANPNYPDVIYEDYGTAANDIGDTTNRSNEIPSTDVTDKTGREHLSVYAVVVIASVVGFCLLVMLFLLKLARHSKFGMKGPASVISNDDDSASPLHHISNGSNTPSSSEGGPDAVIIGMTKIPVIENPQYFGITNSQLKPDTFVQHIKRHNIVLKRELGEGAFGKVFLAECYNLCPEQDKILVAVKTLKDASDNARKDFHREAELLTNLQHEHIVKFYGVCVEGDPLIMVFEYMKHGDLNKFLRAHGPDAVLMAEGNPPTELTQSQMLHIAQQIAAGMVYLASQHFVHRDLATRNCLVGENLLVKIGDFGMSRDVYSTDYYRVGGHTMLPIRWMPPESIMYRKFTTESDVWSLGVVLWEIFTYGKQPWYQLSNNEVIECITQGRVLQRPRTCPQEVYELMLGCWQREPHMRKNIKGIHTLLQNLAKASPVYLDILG
# physchem [31] = conditions: 1-octanol/phosphate buffer, pH 7.4, logD
# Chain of High affinity nerve growth factor receptor (Homo sapiens) (P04629 33-796 limits assumed): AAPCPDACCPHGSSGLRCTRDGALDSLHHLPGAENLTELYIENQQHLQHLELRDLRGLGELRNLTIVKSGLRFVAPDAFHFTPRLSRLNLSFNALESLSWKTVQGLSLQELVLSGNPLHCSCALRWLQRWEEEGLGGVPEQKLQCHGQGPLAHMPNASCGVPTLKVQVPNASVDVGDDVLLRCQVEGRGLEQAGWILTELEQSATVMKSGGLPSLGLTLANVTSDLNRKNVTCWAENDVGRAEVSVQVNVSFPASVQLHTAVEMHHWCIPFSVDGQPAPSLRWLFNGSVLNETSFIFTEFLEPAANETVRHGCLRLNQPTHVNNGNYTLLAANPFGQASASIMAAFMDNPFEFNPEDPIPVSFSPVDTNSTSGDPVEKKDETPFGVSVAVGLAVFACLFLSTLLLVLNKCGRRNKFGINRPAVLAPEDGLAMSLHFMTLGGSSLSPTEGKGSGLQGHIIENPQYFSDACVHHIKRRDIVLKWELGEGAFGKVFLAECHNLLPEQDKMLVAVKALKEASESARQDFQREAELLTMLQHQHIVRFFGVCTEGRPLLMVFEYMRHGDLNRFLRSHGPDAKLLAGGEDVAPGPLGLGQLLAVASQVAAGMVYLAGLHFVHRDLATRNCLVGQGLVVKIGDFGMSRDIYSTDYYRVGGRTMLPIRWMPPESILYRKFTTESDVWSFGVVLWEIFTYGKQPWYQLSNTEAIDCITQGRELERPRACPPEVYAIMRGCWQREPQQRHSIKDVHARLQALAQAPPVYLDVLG
# Chain of NT-3 growth factor receptor (Homo sapiens) (Q16288 32-839 limits assumed): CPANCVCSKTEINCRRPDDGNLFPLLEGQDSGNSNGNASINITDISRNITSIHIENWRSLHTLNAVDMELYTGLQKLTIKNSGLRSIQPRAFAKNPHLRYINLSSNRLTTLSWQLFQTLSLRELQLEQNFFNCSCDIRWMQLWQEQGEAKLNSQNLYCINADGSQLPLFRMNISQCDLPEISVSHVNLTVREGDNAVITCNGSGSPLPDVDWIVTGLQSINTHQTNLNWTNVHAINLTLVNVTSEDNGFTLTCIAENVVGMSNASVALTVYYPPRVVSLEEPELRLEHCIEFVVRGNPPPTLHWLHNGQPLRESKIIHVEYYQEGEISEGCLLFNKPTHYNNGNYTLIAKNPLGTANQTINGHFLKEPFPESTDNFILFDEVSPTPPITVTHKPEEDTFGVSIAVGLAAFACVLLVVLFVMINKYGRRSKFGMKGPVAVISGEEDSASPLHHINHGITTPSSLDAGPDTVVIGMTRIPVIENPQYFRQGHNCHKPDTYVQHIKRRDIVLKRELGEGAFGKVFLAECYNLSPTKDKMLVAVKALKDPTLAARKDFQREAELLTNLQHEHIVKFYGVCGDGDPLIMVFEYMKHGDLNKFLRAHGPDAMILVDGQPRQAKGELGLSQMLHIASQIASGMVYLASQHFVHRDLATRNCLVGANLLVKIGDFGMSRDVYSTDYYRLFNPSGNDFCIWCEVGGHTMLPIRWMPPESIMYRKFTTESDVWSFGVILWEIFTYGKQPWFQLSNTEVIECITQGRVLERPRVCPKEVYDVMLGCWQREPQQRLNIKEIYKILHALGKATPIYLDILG
smiles,measurement,setting,value
CN(C)CC[C@@H](c1ccccc1)n1cc(NC(=O)c2n[nH]c3c2CCC(C)(C)C3)cn1,inhibition,[1],88%
same,bioavailability,[2],40%
same,inhibition,[3],80%
same,fraction unbound,[4],0.07
same,bioavailability,[5],100%
same,AUC,[6],1.1 µM·h
same,AUC,[7],0.6 µM·h
same,half-life,[8],3 h
same,bioavailability,[9],36%
same,Vd,[10],10 L/kg
same,inhibition,[11],76%
same,AUC,[12],1.5 µM·h
same,Vd,[13],14 L/kg
same,half-life,[14],5.4 h
same,Vd,[15],6.7 L/kg
same,clearance,[16],70 mL/min/kg
same,Cmax,[17],200 nM
same,Cmax,[18],3800 nM
same,inhibition,[19],93%
same,clearance,[20],40 mL/min/kg
same,clearance,[21],21 mL/min/kg
same,half-life,[22],2.9 h
same,inhibition,[23],75%
same,AUC,[24],10 µM·h
same,AUC,[25],1.9 µM·h
same,Papp,[26],4.6 ×10⁻⁶ cm/s
same,AUC,[27],27 µM·h
same,"solubility kinetic at 24 h, 10000 µM",physchem [28],68 µM
same,Cmax,[29],900 nM
same,inhibition,[30],91%
same,"logD at 20 min, 10000 µM",physchem [31],2
